Assay results as given in US20070243147A1, “Skin and/or Hair Composition Containing Compounds for Increasing The Tanning of Skin” (BEIERSDORF AG, priority 2004, published 2007).

System: primary normal human melanocytes
Test: melanogenesis assay (14C-tyrosine incorporation) after 3 days of incubation
Assay type: cell-based
Conditions: for melanogenesis rate (measured as 14C-tyrosine incorporation) based on the untreated control (=100%): 3 days incubation, primary normal human melanocytes, mean (X transverse), n=4
Protocol: A melanogenesis assay was carried out after 3 days of incubation of primary normal human melanocytes with test substance compared to control. The figures listed in the table give the melanogenesis rates (measured as ^14C-tyrosine incorporation) based on the untreated control (=100%). It results from this that the melanogenesis, i.e., the process of melanine synthesis, rises to 156% or 150% when the melanocytes are cultivated in the presence of the compound (I) (2E,3S,4R)-2,3,4-trimethyl-3-[(3E,7E,11E)-3,8,12,16-tetramethylheptadeca-3,7,11,15-tetraen-1-yl]cyclohexanone (n=4).
Furthermore, a melanogenesis assay was carried out after 3 days of incubation of primary normal human melanocytes with test substance compared to control. The figures listed in the table give the melanogenesis rates (measured as ^14C-tyrosine incorporation) based on the untreated control (=100%). It results from this that the melanogenesis, i.e., the process of melanine synthesis, rises to 135% or 113% when the melanocytes are cultivated in the presence of the preferred compound (III) (4E,8E,12E,16E)-3,7,11,15-tetrahydroxy-18-(hydroxymethyl)-2,4,6,10,14,16,20-heptamethyldocosa-4,8,12,16-teraenoic acid (n=4).

| SMILES | melanogenesis rate (measured as 14C-tyrosine incorporation) based on the untreated control (=100%) (0.1 μg/ml test substance) | melanogenesis rate (measured as 14C-tyrosine incorporation) based on the untreated control (=100%) (1 μg/ml test substance) | increase of the synthesis of melanin (result in words) (tests to increase the synthesis of melanin) |
| --- | --- | --- | --- |
| CC(C)=CCC/C(C)=C/CC/C(C)=C/CC/C=C(\C)CC[C@@]1(C)[C@H](C)CCC(=O)[C@@H]1C [compound (I), (2R,3S,4R)-2,3,4-trimethyl-3-[(3E,7E,11E)-3,8,12,16-tetramethylheptadeca-3,7,11,15-tetraen-1-yl]cylcohexanone] | 150% | 156% | – |
| CCC(C)CC(/C=C(\C)C(O)C(C)/C=C/C(O)C(C)/C=C/C(O)C(C)/C=C(\C)C(O)C(C)C(=O)O)CO (centres unmarked) [compound (III), (4E,8E,12E, 16E)-3,7,11,15-tetrahydroxy-18-(hydroxymethyl)-2,4,6,10,14,16,20-heptamethyldocosa-4,8,12,16-tetraenoic acid] | 153% | 172% | particularly advantageous |
